From patent publication US20240239854A1, “ANTIMICROBIAL PEPTIDES AND MODIFICATIONS THEREOF” (Donald Danforth Plant Science Center, priority 2022, published 2024)
Converted amounts (≈) assume the structure as drawn. Where two headings read alike, the source gives them in different places. Residues, ends and D or L forms follow the SMILES beside them. No end group written: not given here.

Assays:
[1] = test system: C. parapsilosis; assay: MIC, CLSI M27/M38, half-strength potato dextrose broth (Example 2); assay type: cell-based, Candida parapsilosis; details: Table 8; C. parapsilosis ATCC 22019
Protocol: (§1) MICs were determined at 24-72 hours.

[2] = test system: Candida auris; assay: as above; assay type: cell-based; details: Table 8
[3] = test system: Candida albicans; assay: as above; assay type: cell-based; details: Table 8
[4] = test system: P. capsici; assay: Antifungal MIC assay in SFM culture media (Example 1); assay type: cell-based; details: in vitro, low cationic conditions
[5] = test system: B. cinerea; details: for Antifungal activity relative to the wild-type GMA4C_AC control: in vitro, low cationic conditions
[6] = test system: Candida glabrata; assay: Antifungal MIC in RPMI medium; details: RPMI medium rich in cations
[7] = test system: F. graminearum; details: in vitro, low cationic conditions; F. graminearum
[8] = test system: F. oxysporum; assay: Antifungal MIC assay in SFM culture media (Example 1); assay type: cell-based; details: for Antifungal activity relative to the wild-type GMA4C_AC control: in vitro, low cationic conditions, F. oxysporum
[9] = test system: Candida auris; assay: Antifungal MIC in RPMI medium; details: RPMI medium rich in cations
[10] = test system: Enterotoxigenic E. coli-F4; assay: Antibacterial growth inhibition in Mueller-Hinton media, OD600 (Example 3); assay type: cell-based; details: Table 15, MH medium
Protocol: Salmonella Typhimurium var. Copenhagen, Enterotoxigenic E. coli-F4 and Listeria monocytogens (F5244) strains were grown overnight on an LB agar plate at 37_C. A small number of bacteria was scraped from the plate and added to Mueller-Hinton (MH) growth media and grown to log phase. Cells were diluted to 1-3×10^6 CFU/mL and 50 μl were added to each well in a polypropylene 96-well plate. Synthesized peptide GMA4C_V1A was diluted into 0.2% BSA, 0.0100 acetic acid solution and added to the concentration of 0.2, 0.4, 0.80, 1.6, 3.25, 7.5, 15, 30 and 60 and 120 μM. Then, 50 μl of each peptide solution was added to 50 μl of bacterial cells. Plates were parafilmed and incubated at 37° C. overnight. The concentrations at which bacterial growth inhibition was determined based on the OD600 nm value at each concentration relative to the OD600 nm value of MH medium alone and that of bacterial growth in MH medium without any peptide.

[11] = test system: P. capsici; assay: In planta assay on tomato leaves (Example 1); assay type: in vivo; details: applied on tomato leaves
Source text: Antifungal activity in planta.

[12] = test system: Salmonella Typhimurium var. Copenhagen; assay: Antibacterial growth inhibition in Mueller-Hinton media, OD600 (Example 3); assay type: cell-based; details: Table 15; S. Typhimurium var. Copenhagen; MH medium
[13] = test system: Listeria monocytogens (F5244); assay: as above; assay type: cell-based; details: Table 15; L. monocytogenes F5244; MH medium
[14] = test system: Aspergillus fumigatus; assay: MIC, CLSI M27/M38, half-strength potato dextrose broth (Example 2); assay type: cell-based; details: for MIC (μg/ml) 100%: Table 8, Aspergillus fumigatus AF293
[15] = test system: Coccidioides sp.; assay type: cell-based; details: Table 8
[16] = test system: Zymoseptoria tritici IPO323; assay type: cell-based
[17] = test system: Z. tritici; assay: Wheat - Zymoseptoria tritici in planta spray assay, curative; assay type: in vivo; details: wheat plants; 48 μM spray 24 hours after Z. tritici spores; 21 dpi
[18] = test system: Botrytis cinerea T4; assay type: cell-based
[19] = test system: Fusarium graminearum PH-1; assay type: cell-based; details: MIC Day 1; 96-well plate, resazurin cell viability
[20] = test system: F. solani; assay: MIC, CLSI M27/M38, half-strength potato dextrose broth (Example 2); assay type: cell-based; details: Table 8; Fusarium F4 (F. solani)
Protocol: as §1

[21] = test system: F. oxysporum; assay: as above; assay type: cell-based; details: Table 8
Protocol: as §1

[22] = test system: Tricophyton rubrum; assay: MIC against human nail pathogens (Example 2); assay type: cell-based; details: Table 13
[23] = test system: Tricophyton metagrophytes; assay: MIC against human nail pathogens (Example 2); assay type: cell-based; details: Table 13
[24] = test system: B. cinerea; assay: Pepper - Botrytis cinerea in planta spray assay, preventative and curative; assay type: in vivo; details: pepper plants

| Compound | MIC (μg/ml) 100% [1] [µg/mL] | MIC (μg/ml) 100% ([2]; Candida auris DI17-46) [µg/mL] | MIC (μg/ml) 100% ([2]; Candida auris DI17-47) [µg/mL] | MIC (μg/ml) 100% ([2]; Candida auris DI17-48) [µg/mL] | MIC (μg/ml) 100% ([3]; Candida albicans ATCC 90028) [µg/mL] | MIC (μg/ml) 100% ([3]; Candida albicans CA3) [µg/mL] | MIC (μg/ml) 100% ([3]; Candida albicans SC5314) [µg/mL] | Antifungal activity relative to the wild-type GMA4C_AC control [4] | Antifungal activity relative to the wild-type GMA4C_AC control ([5]; B. cinerea) | Antifungal activity against C. glabrata [6] | Antifungal activity relative to the wild-type GMA4C_AC control [7] | Antifungal activity relative to the wild-type GMA4C_AC control [8] | Antifungal activity against C. auris [9] | MIC (μg/ml) 100% [14] [µg/mL] | MIC (μg/ml) 100% ([15]; Coccidioides sp. Cocci 1) [µg/mL] | MIC (μg/ml) 100% ([15]; Coccidioides sp. Cocci2) [µg/mL] | MIC (μg/ml) 100% ([15]; Coccidioides sp. DI17-143) [µg/mL] | Z. tritici IPO323 MIC Day 1 [16] [µM] | Z. tritici IPO323 MIC Day 7 [16] [µM] | Z. tritici IPO323 MIC Day 14 [16] [µM] | further results |
| --- | --- | --- | --- | --- | --- | --- | --- | --- | --- | --- | --- | --- | --- | --- | --- | --- | --- | --- | --- | --- | --- |
| CC[C@H](C)[C@H](NC(=O)[C@H](CCCNC(=N)N)NC(=O)[C@@H](NC(=O)[C@H](CS)NC(=O)[C@H](Cc1ccccc1)NC(=O)[C@H](CS)NC(=O)[C@H](CCCNC(=N)N)NC(=O)[C@H](CCCNC(=N)N)NC(=O)[C@H](CCCNC(=N)N)NC(=O)[C@H](Cc1ccccc1)NC(=O)CNC(=O)[C@H](CCCCN)NC(=O)[C@H](CS)NC(=O)[C@H](CCCNC(=N)N)NC(=O)CNC(=O)CN)[C@@H](C)O)C(=O)N[C@@H](CS)C(N)=O [GMA4C_V1A] (H-GGRCKGFRRRCFCTRIC-NH2; N-terminus assumed) | 4 (≈ 1.98 µM) | 8 (≈ 3.96 µM) | 8 (≈ 3.96 µM) | 8 (≈ 3.96 µM) | 8 (≈ 3.96 µM) | 8 (≈ 3.96 µM) | 8 (≈ 3.96 µM) | equivalent | equivalent | show antifungal activity | equivalent | equivalent | show antifungal activity | 32 (≈ 15.9 µM) | 8 (≈ 3.96 µM) | 4 (≈ 1.98 µM) | 8 (≈ 3.96 µM) | – | – | – | Potency relative to GMA4C_AC in presence of cations ([5]; B. cinerea, 100 mM NaCl or 100 mM KCl): 2 fold; Fungal growth inhibition at 6 μM ([5]; B. cinerea, in presence of 2 mM CaCl2, peptide 6 μM): inhibit fungal growth; F. oxysporum MIC ([8]; Table 2, SFM culture media): 6 μuM; Concentrations at which growth inhibition was observed [10]: 7.5 to 60 µM; Reduction of disease symptoms caused by P. capsici [11]: more effective; Concentrations at which growth inhibition was observed [12]: 15 to 60 µM; Concentrations at which growth inhibition was observed [13]: 15 to 30 µM |
| PD101.1.1: Nicotiana sylvestris wild-type defensin SEQ ID NO: 624 with an N-terminal alanine, expressed in Pichia pastoris (KLCRRRSKTFSSSCFISEHCDKECKEKEGAKRGMCIKKSIFGRFCYCFHKCK; N-terminal alanine; listed as Nicotiana sylvestris) | – | – | – | – | – | – | – | – | – | – | – | – | – | – | – | – | – | 0.75 | 1.5 | 1.5 | MIC against Z. tritici on day 1 [16]: 0.75 µM; MIC against Z. tritici on day 7 [16]: 1.5 µM; MIC against Z. tritici on day 14 [16]: 1.5 µM; Curative protection against Septoria tritici blotch (STB) [17]: reduction of STB disease symptoms; B. cinerea T4 MIC Day1 [18]: 1.5 µM; F. graminearum PH-1 MIC Day1 [19]: 1.5 µM |
| CC[C@H](C)[C@H](NC(=O)[C@H](CCCNC(=N)N)NC(=O)[C@@H](NC(=O)[C@H](CS)NC(=O)[C@H](Cc1ccccc1)NC(=O)[C@H](CS)NC(=O)[C@H](CCCNC(=N)N)NC(=O)[C@H](CCCNC(=N)N)NC(=O)[C@H](CCCNC(=N)N)NC(=O)[C@H](Cc1ccccc1)NC(=O)CNC(=O)[C@H](CCCNC(=N)N)NC(=O)[C@H](CS)NC(=O)[C@H](CCCNC(=N)N)NC(=O)CNC(=O)CN)[C@@H](C)O)C(=O)N[C@@H](CS)C(N)=O [GMA4C_V2A] (H-GGRCRGFRRRCFCTRIC-NH2; N-terminus assumed) | 8 (≈ 3.91 µM) | 16 (≈ 7.82 µM) | 16 (≈ 7.82 µM) | 16 (≈ 7.82 µM) | 16 (≈ 7.82 µM) | 16 (≈ 7.82 µM) | 16 (≈ 7.82 µM) | – | two-fold reduction | – | two-fold reduction | – | – | 32 (≈ 15.6 µM) | 8 (≈ 3.91 µM) | 16 (≈ 7.82 µM) | 16 (≈ 7.82 µM) | – | – | – | MIC (μg/ml) 100% [20]: 8 µg/mL (≈ 3.91 µM); MIC (μg/ml) 100% ([21]; Fusarium F1 (F. oxysporum)): 8 µg/mL (≈ 3.91 µM); MIC (μg/ml) 100% ([21]; Fusarium F2 (F. oxysporum)): 16 µg/mL (≈ 7.82 µM) |
| OeDef1_V3: OeDef1 variant of Table 13, printed with SEQ ID NO: 769, the number of GMAOe1C_V3 (GACLKNRHSKHYGWFWYYRHCY; not fully specified (C-terminus); cysteine pairing not given here) | – | – | – | – | – | – | – | – | – | – | – | – | – | – | – | – | – | – | – | – | MIC Tricophyton rubrum (23014) [22]: 4.0 µM; MIC Tricophyton metagrophytes (26103) [23]: 4.0 µM; MIC Aspergillus fumigatus (36843) ([14]; Table 13): >7.9 µM |
| CC[C@H](C)[C@H](NC(=O)[C@H](CCCNC(=N)N)NC(=O)[C@@H](NC(=O)[C@@H](NC(=O)[C@H](Cc1ccccc1)NC(=O)[C@@H](NC(=O)[C@H](CCCNC(=N)N)NC(=O)[C@H](CCCNC(=N)N)NC(=O)[C@H](CCCNC(=N)N)NC(=O)[C@H](Cc1ccccc1)NC(=O)CNC(=O)[C@H](CCCNC(=N)N)NC(=O)[C@H](CS)NC(=O)[C@H](CCCNC(=N)N)NC(=O)CNC(=O)CN)C(C)C)C(C)C)[C@@H](C)O)C(=O)N[C@@H](CS)C(N)=O [GMA4C_V3A] (H-GGRCRGFRRRVFVTRIC-NH2; N-terminus assumed) | – | – | – | – | – | – | – | equivalent | equivalent | show antifungal activity | equivalent | equivalent | show antifungal activity | – | – | – | – | – | – | – | B. cinerea MIC [5]: 1.5 µM; MIC (μM) Botrytis cinerea [5]: 3 µM (≈ 6.12 µg/mL); MIC Values (μM) against B. cinerea [5]: 3 µM (≈ 6.12 µg/mL); SFM + 2 mM CaCl2 MIC [5]: >6 µM; SFM + 100 mM KCl MIC [5]: >6 µM; SFM + 100 mM NaCl MIC [5]: 1.5 to 3 µM; SFM MIC [5]: 3 µM |
| PD122.1.1: Setaria italica wild-type defensin SEQ ID NO: 715 with an N-terminal alanine, expressed in Pichia pastoris (RRCVSQSHKFVGSCMRKSNCQHVCQTEGFPWGECRFHGGLLRRCFCNKLC; N-terminal alanine; listed as Setaria italica) | – | – | – | – | – | – | – | – | – | – | – | – | – | – | – | – | – | 0.75 | 2.5 | 3 | Curative protection against gray mold disease ([24]; 24 μM spray 24 hours after B. cinerea spores, 5 dpi): reduction of gray mold disease symptoms; Preventative protection against gray mold disease ([24]; 24 μM spray 24 hours before B. cinerea spores, 96 hpi): reduction of gray mold disease symptoms; B. cinerea T4 MIC Day1 [18]: 0.75 µM; F. graminearum PH-1 MIC Day1 [19]: 1.5 µM |
